# According to US20240000949A1, “Nucleic Acid-Derivatized Therapeutics” (The University of Chicago, priority 2020, published 2024):
# {Alexa647} = Alexa Fluor 647 dye
# Assays:
# [1] = tested on: TAMs isolated from E0771 tumors; assay: DQ-OVA degradation by TAMs treated ex vivo; type: cell-based, mouse; details: 100 nM, 2h ex vivo
# Description: FIGS. 46A-46B. A lysosome-targeted DNA nanodevice (E64-DNA) promotes antigen cross-presentation by TAMs. FIG. 43A, Representative images (left) and Pearson correlation (right) of co-localization of TMR-Dextran labeled lysosomes (green) with E64-DNA (red). Pearson correlation with and without a 20-pixel shift (˜lysosome diameter) of the green signal. n=15 cells/group. scale bar=[…]. FIG. 43B, DQ-OVA degradation by TAMs treated with E64-DNA, DNA, or E64 (100 nM) for 2h. n=3/group. Statistical significance was calculated via two-tailed Student's t-test (p<0.05 values are provided); error bars indicate the mean of independent experiments±s.e.m. ns; not significant. TAMs were isolated from E0771 tumors. All measurements (n) are biological replicates.
# Analysis of lysosomal degradation by DQ-OVA. Lysosomal degradative capacity of macrophages was assessed by a DQ-OVA degradation assay (D-12053, Invitrogen®) according to the manufacturer's instruction. Briefly, 0.2 million cells were incubated with 10 μg/mL of DQ-OVA at room temperature for 15 min, washed, and incubated at 37° C. for another 15 min. DQ-OVA fluorescence was quantified by flow cytometry.
# TAMs / OT-1 CD8+ T cells = assay: MHCI-restricted antigen cross-presentation by TAMs (OVA-OT-1 CD8+ T cell system); type: cell-based, mouse; details: 100 nM, alone
# Description: OT-1 CD8^+ T-cell activation (FIG. 53B) and proliferation (FIG. 53C) after 72h of co-culture with TAMs. n=3/group. Vehicle (Veh)=phosphate-buffered saline. Statistical significance was calculated via two-tailed Student's t-test (p<0.05 values are provided); error bars indicate the mean of independent experiments±s.e.m. ns; not significant. TAMs were isolated from E0771 tumors. All measurements (n) are biological replicates.
# CD3/CD28 antibodies were included as a positive control for T cell activation. n=3/group. Statistical significance was calculated via two-tailed Student's t-test (p<0.05 values are provided); error bars indicate the mean of independent experiments±s.e.m. All measurements (n) are biological replicates. […]
# T cell activation—CD8^+ or CD4^+ T cells were treated with BD GolgiPlug for the final 6 h of coculture with macrophages to allow intracellular IFNγ accumulation. […] The percent of IFNγ^+/CD44^+CD8^+ T cells was quantified by flow cytometry. In some cases, CD8^+ T cell IFNγ production in the culture medium at 72h was quantified using a mouse IFN-γ ELISA kit (Invitrogen).
# T cell proliferation—Isolated CD4^+ or CD8^+ T cells were labeled with 5 μM 5,6-carboxyfluorescein diacetate succinimidyl ester (CF SE, Invitrogen) according to the manufacturer's instructions. The number of proliferating cells (CF SE-diluted) was quantified using CountBright™ beads (Invitrogen). […]
# tumor growth = details: 1 mg, daily; cited from earlier work
# [2] = tested on: Lactate dehydrogenase (LDH) in BMDMs; assay: LDH activity and lactate in BMDMs under hypoxia; type: cell-based, mouse; details: hypoxic (1% 02), 24h, vs vehicle
# Description: FIG. 82. […] Bone marrow-derived macrophages (BMDMs) were cultured under normoxic (n) or hypoxic (h, 1% 02) conditions for 24h in the presence of vehicle (veh), GNE, or GNE-DNA.
# FIG. 83. […] Bone marrow-derived macrophages (BMDMs) were cultured under normoxic (n) or hypoxic (h, 1% 02) conditions for 24h in the presence of vehicle (veh), GNE, or GNE-DNA. Intracellular lactate levels in BMDMs are decreased by GNE or GNE-DNA under hypoxic conditions to levels compared to vehicle.
# BMDMs were differentiated from bone marrow stem cells with L-cell conditioned media for six days as previously described (Kratz et al.).
# M2 BMDMs = assay: Uptake by M2 BMDMs in vitro (wt and scavenger receptor knockouts; nucleic acid variants); type: cell-based, mouse; details: 30 min
# Description: FIG. 48. A lysosome-targeted DNA nanodevice (E64-DNA) promotes antigen cross-presentation by TAMs. E64-DNA uptake by M2 BMDMs from wt, Scarb1−/−, Msr1−/−, or Cd36−/− mice. Uptake was quantified by flow cytometry; n=3/group. Statistical significance was calculated via two-tailed Student's t-test (p<0.05 values are provided); error bars indicate the mean of independent experiments±s.e.m. ns; not significant. TAMs were isolated from E0771 tumors. All measurements (n) are biological replicates.
# FIGS. 49A-49B. DNA nanodevice uptake and stability. FIG. 49A, Schematic of various fluorescently labeled nucleic acid structures used for uptake studies in BMDMs. Each nucleic acid scaffold is either a single stranded or double stranded 38 mer DNA or RNA sequence. Each scaffold is labelled with an Alexa Fluor® 647 fluorophore on the 5′ end of one of the strands. FIG. 49B, Uptake of various types of nucleic acids by M2 BMDMs. n=3/group. Statistical significance was calculated via two-tailed Student's t-test (p<0.05 values are provided); error bars indicate the mean of independent experiments±s.e.m. ns; not significant. […]
# E64-DNA uptake by M2 BMDMs in vitro—E64-DNA (100 nM) or other types of nucleic acids (D1-D2, D2, R1-R2, R2) was incubated with 0.2 million M2-activated BMDMs from wt, Scarb1−/−, Msr1−/−, or Cd36−/− mice for 30 min, washed with PBS, and uptake was assessed by flow cytometry.
# BMDMs = assay: Uptake of fluorescently labelled nucleic acid scaffolds by BMDMs (flow cytometry); type: cell-based, mouse; details: pulsed with 50 nM scaffold 30 min, chased 15 min
# Source text: FIGS. 1A-1B. Uptake of various oligonucleotides by bone marrow-derived macrophages (BMDMs). FIG. 1A, Schematic of various fluorescently labelled nucleic acid structures used for uptake studies in BMDMs. Each nucleic acid scaffold is either a single stranded or double stranded 38 mer DNA (D) or RNA (R) sequence, or a DNA:RNA hybrid or complex. Each scaffold is labelled with an Alexa Fluor® 647N fluorophore on the 5′ end of one of the strands. From left to right, the constructions tested were dsDNA (SEQ ID NO: 40 and SEQ ID NO: 41 or SEQ ID NO: 42), ssDNA (SEQ ID NO: 41), dsRNA (SEQ ID NO: 43 and SEQ ID NO: 44), ssRNA (SEQ ID NO: 43), and ssDNA:ssRNA (SEQ ID NO: 45 and SEQ ID NO: 46). FIG. 1B, BMDMs were pulsed with 100 nM of each nucleic acid scaffold for 30 min. The cells were then washed and chased for 15 min after which were subjected to flow cytometry based quantification. Mean fluorescence intensity (A/IFI) of nucleic acid scaffold uptake by BMDMs is shown.
# Various fluorescently labelled scaffolds were tested in a variety of nucleic acid configurations (Table 1).
# BMDMs were pulsed with 50 nM of each nucleic acid scaffold for 30 min. The cells were then washed and chased for 15 min after which they were subjected to flow cytometry quantification. A nucleic acid scaffold was then selected for subsequent experiments. […]
# E0771 tumors = assay: E0771 tumor growth after i.v. delivery (incl. antibody depletion, anti-PD-L1 and CTX combinations); type: in vivo, mouse; details: E64-DNA 25 μg i.v., CTX 50 mg/kg
# Description: E64-DNA or DNA (25 μg) was intravenously delivered (i.v.; retro-orbital) into E0771 tumor-bearing mice. E0771 tumor growth over 5 days after a single injection is shown. n=8/group. Statistical significance was calculated via two-tailed Student's t-test (p<0.05 values are provided); error bars indicate the mean of independent experiments±s.e.m. ns, not significant. All measurements (n) are biological replicates.
# Experimental design for depleting TAMs with α-CSF1R antibody (top). Effect of IgG or α-CSF1R (300 μg) on E0771 tumor growth (bottom, left) and CD8^+ effector T cells in tumors (bottom, right) in mice treated with E64-DNA (n=8/group) or DNA (n=6/group). E64-DNA or DNA (25 μg) was intravenously delivered (i.v.; retro-orbital) into E0771 tumor-bearing mice.
# Effects of α-CD8, α-PD-L1, or IgG antibodies on E0771 tumor growth in mice treated with E64-DNA or DNA. […]
# E64-DNA or DNA (25 μg) was intravenously delivered (i.v.; retro-orbital) into E0771 tumor-bearing mice. […] Statistical significance was calculated via two-tailed Student's t-test (p<0.05 values are provided); error bars indicate the mean of independent experiments±s.e.m. ns, not significant. […]
# [3] = tested on: adipose tissue macrophages; assay: In vivo labeling by intraperitoneal dsDNA; parameters: species or system mouse; details: 100 μg dsDNA intraperitoneally
# Description: (§1) FIGS. 2A-2B. dsDNA preferentially targets macrophages in other tissues. FIG. 2A, Fluorescently labeled dsDNA (100 μg) was injected intratracheally into mice and cells were harvested 2 hr post injection with a bronchoalveolar lavage. Uptake by alveolar macrophages (AM, CD45^+CD11b^−CD11c^+) and alveolar neutrophils (AN, CD45^+CD11b^+Ly6G^+) was quantified by flow cytometry. FIG. 2B, Fluorescently labeled dsDNA (100 μg) was injected intraperitoneally into mice and visceral adipose tissue was harvested 4 hr post injection. Adipose tissue was digested to obtain the stromal vascular fraction. dsDNA uptake by cells in the stromal vascular fraction was quantified by flow cytometry. ATM=adipose tissue macrophage (CD45^+CD11b^+F4/80^+).
# (§2) BMDMs were pulsed with 50 nM of each nucleic acid scaffold for 30 min. The cells were then washed and chased for 15 min after which they were subjected to flow cytometry quantification. A nucleic acid scaffold was then selected for subsequent experiments. To test the efficiency of macrophage labeling in vivo, 25 μg of fluorophore labeled dsDNA was injected intravenously into a mouse model of triple-negative breast cancer (TNBC).
# alveolar macrophages = assay: In vivo labeling by intratracheal dsDNA; parameters: species or system mouse; details: 100 μg dsDNA intratracheally
# Description: as §1, §2
# [4] = tested on: tumor associated macrophages; assay: In vivo macrophage labeling by i.v. fluorophore labeled dsDNA, TNBC model; details: 25 μg dsDNA i.v., TNBC mouse model
# Description: as §2
Molecule,DQ-OVA degradation by TAMs [1],antigen cross-presentation by TAMs (TAMs / OT-1 CD8+ T cells),internalization of 38 nucleotide Alexa 647 scaffolds by M2 BMDMs (M2 BMDMs),uptake of nucleic acid scaffold by BMDMs (BMDMs),further results
"CC(C)C[C@H](NC(=O)[C@@H]1O[C@H]1C(=O)O)C(=O)NCCCCNC(=N)N [E64, reference compound]",could not be reproduced,did not affect cross-presentation,–,–,"tumor growth, free E64 high doses (tumor growth): limited impact on tumor growth"
"O=C1N[C@](c2ccc(N3CCOCC3)cc2)(c2ccsc2)CC(O)=C1Sc1ccccc1Cl [GNE, (R)-GNE-140]",–,–,–,–,Lactate dehydrogenase (LDH) activity in BMDMs [2]: decreased; intracellular lactate levels in BMDMs [2]: decreased
"ssDNA: single stranded 38 mer DNA, SEQ ID NO: 41, Alexa 647 labelled (TATATATAGGATCTTGCTGTCTGGTGTGCAGTGTTGAT; DNA, 5' {Alexa647}, backbone and methylation of C not given here)",–,–,required a ssDNA or dsDNA scaffold,maximal uptake,–
"O=P1(N(CCCl)CCCl)NCCCO1 (stereo not drawn) [CTX, cyclophosphamide]",–,–,–,–,sustained tumor regression in the E0771 model (E0771 tumors): could not be replicated
"dsDNA: 38-mer double stranded DNA, SEQ ID NO: 40 and SEQ ID NO: 41, Alexa 647 labelled; targeting module without drug (nucleic acid, listed as DNA, chemistry not fully specified, targeting module without drug) chain 1: ATCAACACTGCACACCAGACAGCAAGATCCTATATATA chain 2: TATATATAGGATCTTGCTGTCTGGTGTGCAGTGTTGAT",could not be reproduced,did not affect cross-presentation,required a ssDNA or dsDNA scaffold,maximal uptake,labeling of adipose tissue macrophages preferentially over other cell types [3]: 70%; labeling of alveolar macrophages preferentially over other cell types (alveolar macrophages): > 95%; labeling of tumor associated macrophages preferentially over any other cell type in the tumor microenvironment [4]: > 90%
